The nature of series [1]: Solubility of FDCA in water. In kind it is physicochemical.
The nature of series [2]: HMF oxidoreductase assay: FDCA formation in cell extract of P. putida_pJT'hmfH. In kind it is biochemical. Here is the method:
Cell extracts of wildtype C. basilensis HMF14 or P. putida S12 transformants expressing HMF oxidoreductase were prepared from 50-ml late exponential growth phase cultures using MM supplemented with either 12 mM succinate (C. basilensis HMF14, OD600≈1.5) or 20 mM glucose (P. putida S12, OD600≈4). The cultures were harvested by centrifugation and resuspended in 3 ml of assay buffer. Cells were disrupted by sonication, using either a Branson sonifier (micro tip at pulse mode, output set at 3 and percentage duty cycle set to 40%; 3 cycles of sonication: 45 s of pulsing and 15 s pause) or a Sonics Vibra-Cell (Sonics&Materials, USA) (5 mm tapered microtip; pulse mode set to 1 min (0.5 s pulse, 2 sec pause). After sonication, debris was removed by centrifuging at 8228×g for 3 min at 4° C. The supernatant was desalted using a PD10 gel filtration column (GE healthcare) and used as cell extract for HMF oxidoreductase assays. Protein concentration was measured using Bradford reagent (Sigma-Aldrich).
HMF oxidoreductase assays were performed in cell extracts of wildtype C. basilensis HMF14 or P. putida S12 transformants expressing the C. basilensis HMF14 HMF oxidoreductase. As a negative control, wildtype P. putida S12 or a C. basilensis HMF14 mutant was used that carried a transposon insertion in the hmfH gene. […]

In brackets after ≈: the same amount, converted by molar mass.

The term solubility denotes the concentration that dissolves in the medium under given conditions. The low end stands for little dissolved substance, the high end for much dissolved substance.

Turning to `O=C(O)c1ccc(C(=O)O)o1` [FDCA, 2,5-Furan-dicarboxylic acid], the solubility is approximately 1500 µg/mL (≈ 9.61 mM) in series [1] (aqueous buffer, pH 1.0) and approximately 400 µg/mL (≈ 2.56 mM) in series [1] (pH 0.5, aqueous buffer).

B1: HmfH: 62 317 Da FAD-dependent GMC-family oxidoreductase of Cupriavidus basilensis HMF14, encoded by hmfH (protein, listed as Cupriavidus basilensis)
chain: MDTPRERFDYVIVGGGSAGCVLANRLSQDPAIRVALIEAGVDTPPDAVPAEILDSYPMPLFFGDRYIWPSLQARAVAGGRSKVYEQGRVMGGGSSINVQAANRGLPRDYDEWAASGASGWSWQDVLPYFRHLERDVDYGNSPLHGSHGPVPIRRILPQAWPPFCTEFAHAMGRSGLSALADQNAEFGDGWFPAAFSNLDDKRVSTAIAYLDADTRRRANLRIYAETTVRKLVVSGREARGVIAMRADGSRLALDAGEVIVSAGALQSPAILMRAGIGDAGALQALGIEVVADRPGVGRNLQDHPALTFCQFLAPQYRMPLSRRRASMTAARFSSGVPGGEASDMYLSSSTRAGWHALGNRLGLFFLWCNRPFSRGQVSLAGAQPDVPPMVELNLLDDERDLRRMVAGVRKLVQIVGASALHQHPGDFFPATFSPRVKALSRVSRGNVLLTELLGAVLDVSGPLRRSLIARFVTGGANLASLLTDESALEGFVRQSVFGVWHASGTCRMGAHADRSAVTDAAGRVHDVGRLRVIDASLMPRLPTANTNIPTIMLAEKIADTMQAERRAVRPASSEVAHPS
On to B1, for which the “substrate oxidation by the enzyme” value in series [2] is given as “ability to oxidize HMF-acid to furan-dicarboxylic acid (FDCA)”.

(Values after patent US9481900B2, “Polypeptides having oxidoreductase activity and their uses” (Purac Biochem B.V., priority 2009, dated 2016).)
